Among the data in PubChem BioAssay AID588600 (Sanford-Burnham Center for Chemical Genomics, 2011) are IC50 values, retold here.

The target of the experiment is Sentrin-specific protease 7 (Homo sapiens) (UniProt Q9BQF6). Put plainly: inhibition of human SENP7 cleavage activity – biochemical, luminescence, set 2, SAR follow-up (AID 588600). The note with it: recombinant SENP7, Z-RLRGG-aminoluciferin, 40 min.
Sentrin-specific protease 7 (Homo sapiens), sequence (Q9BQF6 706-1050 limits assumed): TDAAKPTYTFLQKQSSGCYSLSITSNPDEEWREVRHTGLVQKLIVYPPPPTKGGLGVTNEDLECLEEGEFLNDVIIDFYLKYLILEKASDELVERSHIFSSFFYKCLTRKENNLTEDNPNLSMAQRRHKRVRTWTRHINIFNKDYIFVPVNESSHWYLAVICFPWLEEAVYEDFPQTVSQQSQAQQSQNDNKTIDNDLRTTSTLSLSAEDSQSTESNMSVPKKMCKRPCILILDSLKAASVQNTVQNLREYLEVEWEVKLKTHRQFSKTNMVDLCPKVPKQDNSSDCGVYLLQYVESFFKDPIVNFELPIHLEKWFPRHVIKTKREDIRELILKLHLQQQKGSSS

With `COc1ccccc1OCc1nc(-c2ccccc2Cl)no1`, the half-inhibitory concentration (IC50) was 2080 nM.

Turning to `CN(C)c1ccc(/C=C/c2noc(-c3ccccc3O)n2)cc1`, the IC50 is 1650 nM.
